Experimental data published in US8980917B2, “Methods for treating or preventing brain infections” (The Johns Hopkins University, priority 2008, dated 2015).
“Also recorded” adds a separate entry of the source.

Assays:
[1] = developed for asthma; cited from earlier work
HBMEC monolayers = assay: Integrity of HBMEC monolayers by TEER before and after transcytosis assays; assay type: cell-based, human; settings: at 50 μM
From the text: We also examined the effect of C. neoformans traversal on the HBMEC monolayer integrity, as measured by passive diffusion of ^3H-inulin and TEER at the end of the transcytosis experiment as described previously (7).

E. coli K1 strain RS218 [2] = assay: Infant rat model of experimental hematogenous E. coli meningitis; assay type: in vivo; settings: 5-day-old rats, 9 animals; i.p. 50 μg/10 gm one hour before bacteria; p < 0.001 by Fisher's exact test
Experimental: Experimental hematogenous E. coli meningitis was induced in 5-day old rats as previously described (9, 10, 14, 28). Briefly, outbred, specific-pathogen-free pregnant Sprague-Dawley rats with timed conception were purchased from Charles River Breeding laboratory (Wilmington, Mass.). The rats delivered in our vivarium 5 to 7 days after arrival. At 5 days of age, all members of each litter were randomly divided into two groups, to receive intraperitoneally montelukast (50 μg/10 gm of weight in 50 μl PBS) or vehicle control (3.3% DMSO in 50 μl PBS). One hour later, each animal received 1×10^7 CFU of E. coli K1 strain RS218 via intracardiac injection. At one hour after bacterial injection, blood and CSF specimens were obtained as described previously (9, 10, 14, 28) for quantitative cultures. The development of E. coli meningitis (defined as positive CSF cultures) was compared between the two groups of animals.
We also examined one of the CysLT1 antagonists for its effect on E. coli K1 penetration into the brain in our well-characterized infant rat model of experimental hematogenous E. coli meningitis (9, 10, 14, 28). At 5 days of age, all members of each litter were randomly divided to receive intraperitoneally montelukast or vehicle control. […] At one hour after bacterial inoculation, blood and cerebrospinal fluid (CSF) specimens were obtained for quantitative cultures.

E. coli K1 strain RS218 [3] = assay: Mouse model of experimental hematogenous E. coli meningitis (cPLA2α-/- and wild type BALB/c mice); assay type: in vivo; settings: i.v. 1.2 μg/mouse in 50 μl PBS 30 mins before bacterial injection
Experimental: cPLA2α−/− and wild type mice, either male or female, […] that had been backcrossed on the BALB/c strain for >10 generations were used^14. All procedures and handling techniques were approved by The Johns Hopkins Animal Care and Use Committee.
Each mouse received 1×10^7 CFU of E. coli K1 strain RS218 in 100 μl PBS via the tail vein. One hour later, mouse chest was cut open, and blood from right ventricle was collected and plated for bacteria counts, which were expressed as CFUs/ml of blood. The mouse was then perfused with a mammalian Ringer's solution by transcardiac perfusion through a 23-gauge needle inserted into the left ventricle of the heart under the perfusion pressure of about 100 mmHg. The perfusate exited through a cut in the right atrium. […] The brains were removed, weighed and homogenized in 2 ml RPMI followed by plating for bacterial counts, which were expressed as CFUs/gm. Since E. coli K1 penetration into the brain is shown to depend on the magnitude of bacteremia^5,7, bacterial penetration into the brain was also expressed as [(brain CFUs per gm)/(blood CFUs per ml)]×100. Kidneys and spleens were also removed, homogenized and plated for determination of bacterial counts, which were expressed as CFUs/gm. […]

C. neoformans = assay: Mouse model of C. neoformans meningitis/meningoencephalitis following intravenous inoculation; assay type: in vivo; settings: strain B-3501A; cPLA2α-/- mice; i.v. 1.2 μg/mouse 30 mins before C. neoformans injection; 24 hours
Experimental: The mouse model of Cryptococcal meningitis/meningoencephalitis following intravenous inoculation was used to determine the hematogenous dissemination of C. neoformans to the brain as described previously (7, 8). C. neoformans strains grown on 1% yeast extracts, 2% peptone and 2% dextrose (YPD) agar were suspended in phosphate-buffered saline (PBS, pH 7.4) and counted with a hemocytometer to determine the yeast cell number. This suspension was also cultured on YPD agar plates, and colonies (CFUs) counted after 3 days of incubation at 30° C. as previously described (11). The inoculum size was confirmed by CFUs.
Briefly, female BALB/c mice received 10^5 yeast cells via the tail vein. 24 hours later, the blood specimens were obtained for determination of CFUs, and the animals perfused with sterile Ringer's solution until the perfused solution became colorless. The brains were removed, weighed, homogenized and cultured on YPD agar for determination of CFUs.
cPLA2α. We examined the role of host cPLA2α in C. neoforman strain B-3501A penetration into the brain by studying cPLA2α−/− mice as compared to their strain-matched wild type mice. Each animal received 10^5 yeast cells via the tail vein. 24 hours later, the blood specimens were obtained for determination of CFUs, and the animals perfused with sterile Ringer's solution until the perfused solution became colorless. […]

blood-brain barrier = assay: Blood-brain barrier permeability by Evans blue dye extravasation into the brain; assay type: in vivo, mouse; settings: cPLA2α-/- mice

CC(C)(O)c1ccccc1CC[C@@H](SCC1(CC(=O)O)CC1)c1cccc(/C=C/c2ccc3ccc(Cl)cc3n2)c1 [montelukast]
safety and tolerability in clinical trials [1]: safe and well tolerated
integrity of the HBMEC monolayers (TEER) (HBMEC monolayers): did not affect the integrity of the HBMEC monolayers
% of animals with meningitis (positive CSF cultures) (E. coli K1 strain RS218 [2]): 22%
No. of animals with meningitis (positive CSF cultures) (E. coli K1 strain RS218 [2]): 2

CCCCC/C=C\C/C=C\C/C=C\C/C=C\CCCC(=O)O [arachidonic acid, Arachidonic acid]
E. coli K1 penetration into the brain (brain CFU/gm and percent of brain CFU/blood CFU) (E. coli K1 strain RS218 [3]): significantly enhanced E. coli K1 penetration into the brain to the level observed in the wild type mice
C. neoformans penetration into the brain (CFU/gm) (C. neoformans): significantly enhanced C. neoformans penetration into the brain to the level observed in the wild type mice
blood-brain barrier permeability (Evans blue extravasation into the brain) (blood-brain barrier; 1.2 μg i.v. 30 min before E. coli RS218 injection): no significantly increased extravasation of intravenously administered Evans blue dye into the brain; also recorded: did not affect the blood-brain barrier permeability
blood-brain barrier permeability (Evans blue extravasation into the brain) (blood-brain barrier; 1.2 μg/mouse i.v. 30 mins before C. neoformans injection): not accompanied by any change in the blood-brain barrier permeability
